# From patent publication US20040224379A1, “Method and apparatus for detection of toxic substances in a sample” (priority 2000, published 2004)
# Test system: Tetramitus flagellates
# Experiment: Microscopic observations of swimming behavior and morphology of Tetramitus flagellates during exposure
# Type: cell-based, Tetramitus rostratus
# Details: 10 μg/mL
structure (smiles),measurement,setting,value
O=[N+]([O-])c1cc[n+]([O-])c2ccccc12 [4-nitroquinoline-n-oxide],Swarming Behavior,exposure time 0.5 Hours,Normal
same,Swimming Velocity (% Slow),"exposure time 0.5 Hours, cell wraps: 10-20% Slow",10-20%
same,Spinner Frequency,"exposure time 0.5 Hours, cells rotating in a circular pattern",<1%
same,Appearance of Larger Morphs,"exposure time 0.5 Hours, larger cells with abnormally-formed rostrum and large vacuoles",1-5%
same,Appearance of Larger Morphs,exposure time 0.9 Hours,5-10%
same,Spinner Frequency,exposure time 0.9 Hours,˜5%
same,Swarming Behavior,exposure time 0.9 Hours,Delayed
same,Swimming Velocity (% Slow),"exposure time 0.9 Hours, cell wraps: 50-70% Slow",50-70%
same,Appearance of Larger Morphs,exposure time 1.6 Hours,10-20%
same,Spinner Frequency,exposure time 1.6 Hours,5-10%
same,Swimming Velocity (% Slow),"exposure time 1.6 Hours, cell wraps: 100% Slow",100%
same,Appearance of Larger Morphs,exposure time 4.5 Hours,50%
same,Spinner Frequency,exposure time 4.5 Hours,20%
same,Swimming Velocity (% Slow),"exposure time 4.5 Hours, cell wraps: 100% Slow",100%
same,Spinner Frequency,exposure time 8.7 Hours,70-90%
same,Swimming Velocity,exposure time 8.7 Hours,Very Slow
same,Swarming Behavior,"exposure time 8.7 Hours, cell wraps over rows: No Swarming",No
same,Appearance of Larger Morphs,"exposure time 8.7 Hours, cell wraps: 100% Rounded cells with large vacuoles",100% Rounded cells
